This note sets out measurements from a melting point compilation (Tetko et al.; mined from patent text by program, amines drawn as free bases though some values may be those of a salt).

Usually melting point stands for the temperature, or range, at which the solid turns liquid. `Nc1ncc(-c2ccncc2)cn1`: the melting point lay in the range of 180 to 182 °C.
For `c1ccc2c3ccocc-3nc2c1`, the melting point is 109 to 111 °C.
Take `CC(C)n1c(C=O)c(-c2ccc(F)cc2)c2cccnc21`: the melting point is 95 to 101 °C.
With `CCOC(=O)C(C=O)c1ccc(Cl)cc1` (stereo not given), the melting point came to 50 °C.
The compound `O=P(CN(O)Cc1ccccc1)(OCc1ccccc1)OCc1ccccc1` had a melting point of 62 to 64 °C.
In the case of `C=C1C2CCCCC2CC2C(OC)OCC12` (stereo not given), the melting point fell in the range of 53 to 55 °C.
`CNc1ccc(N2C(=O)c3ccccc3C2=O)c(C)c1` gave a melting point of 159 to 161 °C.
For `NC(=O)N1CCCC1COc1cncc(Cl)c1` (stereo not given) the value was 95 °C; for `COCC(COC)Oc1ccc(C#CC2(O)CN3CCC2CC3)cc1` (stereo not given), 125 to 127 °C; for `CC1(C)CCC(C)(C)c2cc(-c3cc(-c4ccc(C(=O)O)cc4)ccc3OCCCNC3CC3)ccc21`, 192 °C.
`N#Cc1ccc(CNC(=O)Cc2ccc(O)cc2)cc1` came in with a melting point of 176 to 178 °C.
Compound `COc1ccc(N(CCCC(=O)O)C(=O)CCN(C(C)=O)c2c(C)cccc2C)cc1` yielded a melting point of 90 to 92 °C.
`CCOC(=O)C(=O)Nc1ccccn1` registered a melting point of 73 to 75 °C.
For `Fc1ccc(Cn2c(NC3CCN(CCNc4nc5ccccc5n4Cc4ccc(Cl)c(Cl)c4)CC3)nc3ccccc32)cc1` the value was 113 °C; for `COc1ccc(C2C(C(=O)/C=C/c3ccc(O)c(OC)c3)C(=O)CC(c3ccc(O)c(OC)c3)C2[N+](=O)[O-])cc1` (stereo not given), 83 to 85 °C; for `CC(C)C(CCl)NC(=O)c1nsc2ccc(-n3c(=O)cc(C(F)(F)F)n(C)c3=O)cc12` (stereo not given), 196 to 197 °C.
`c1ccc2sc(=NCCN3CCOCC3)sc2c1` had a melting point of 75 to 76 °C.
As to `COC(=O)c1nc(-c2ccc(Cl)cc2F)nc(N)c1Br`, the melting point was in the range of 186 to 188 °C.
For `CC1(C)COC(=O)[C@@H]1Oc1ccc(C#N)c(C(F)(F)F)c1` the value was 89.9 to 90.7 °C.
Regarding `O=C(O)COc1cccc2c1OCc1sc(SC(c3ccccc3)c3ccccc3)nc1-2`, the melting point is 129 to 131 °C.
With `CCOC(=O)C1=C(COCCNS(=O)(=O)NC(=O)c2ccco2)NC(C)=C(C(=O)OC)C1c1ccccc1Cl` (stereo not given) the figure was 138 °C; with `O=C(CBr)c1cc2ccccc2[nH]1`, 125 to 130 °C; with `C=Cc1c(F)c(F)cc2c(=O)c(C(=O)OCC)cn(C3CC3)c12`, 178 to 179 °C.
With `c1ccc(CSc2nc3cc4ccccc4cc3[nH]2)nc1` the figure was 170 °C; with `COc1ccc(C(=O)c2ccccc2F)c(O)c1Cl`, 132 to 133 °C.
With `CCOc1ccccc1OCC(O)CN` (single isomer, unassigned; (-)), the melting point is 87 °C.
`CN(C)CCSc1ccc2nccn2n1` returned a melting point of 52 to 54 °C.
With `CC(=O)N1CCN(c2c(C)c(C)c3c(c2C)C(c2ccc(C)cc2)C(C)(C)O3)CC1` (stereo not given) the figure was 272 to 274 °C.
With `O=C1CCC(N2Cc3c(CNC(=O)c4cccc(Cl)c4)cccc3C2=O)C(=O)N1` (stereo not given), the melting point lay within 266 to 268 °C.
`COC(=O)c1cccc2nc(OCC(F)(F)F)n(Cc3ccc(-c4ccccc4-c4nnn[nH]4)cc3)c12` had a melting point of 210 to 212 °C.
As to `Nc1c(F)c(N2CCC(c3ccccn3)C2)c(F)c2c1c(=O)c(C(=O)O)cn2C1CC1` (stereo not given), the melting point was in the range of 206 to 208 °C.
For `O=NN(CCCl)C(=O)NC1OC(CO)C(O)C1O` (stereo not given), the melting point was 69 to 71 °C.
For `CCOC(=O)c1sc(-c2ccc3c(=O)n(CC(C)C)c(CNC(=O)OCC4c5ccccc5-c5ccccc54)c(-c4ccccc4)c3c2)nc1C` the value was 157 to 158 °C.
`Cc1nc2c(OCc3ccccc3)cc(C(=O)N(C)C)cc2n1COCC[Si](C)(C)C` gave a melting point of 118 to 120 °C.
Take `CCOC(=O)c1cnc2scc(C)c2c1O`: the melting point lay in the range of 189 to 192 °C.
